This passage reports IC50 and Activity results from ChEMBL document CHEMBL1155649, “A new inhibitor of 5'-hydroxyaverantin dehydrogenase, an enzyme involved in aflatoxin biosynthesis, from Trichoderma hamatum” (J Nat Prod, 2000).

Test [1] in a line: Inhibition of Aspergillus parasiticus NIAH-26 5'-hydroxyaverantin dehydrogenase.
The nature of test [2]: Inhibition of malate dehydrogenase at 3 mM.

The source made the active and inactive calls. The calls are words filed in the database; no cut-off is given here.

`CO[C@H]1[C@@H](O)[C@@]2(C)c3ccc4c(c3-c3c2c(coc3=O)[C@@H]1O)CCC4=O` (relative stereo) displayed a concentration for half-maximal inhibition (IC50) in test [1] of 250 µM. In test [2], the result was inactive.
